Assay results taken from PMC10810133, “Exploring the inhibitory potential of in silico-designed small peptides on Helicobacter pylori Hp0231 (DsbK), a periplasmic oxidoreductase involved in disulfide bond formation” (Frontiers in Molecular Biosciences, 2024).
“Also recorded” adds a separate entry of the source. Read-outs that look alike come from different tables or passages of the source. Residues, ends and D or L forms follow the SMILES beside them.

Experiments:
[1] = biological target: T1, Hp0231APHA (Helicobacter pylori, UniProt O25017, C159A/C162A); assay: Microscale thermophoresis (MST) binding of inhibitory peptides to Hp0231APHA (inactive form)
T1 sequence (O25017 1-265 C159A/C162A): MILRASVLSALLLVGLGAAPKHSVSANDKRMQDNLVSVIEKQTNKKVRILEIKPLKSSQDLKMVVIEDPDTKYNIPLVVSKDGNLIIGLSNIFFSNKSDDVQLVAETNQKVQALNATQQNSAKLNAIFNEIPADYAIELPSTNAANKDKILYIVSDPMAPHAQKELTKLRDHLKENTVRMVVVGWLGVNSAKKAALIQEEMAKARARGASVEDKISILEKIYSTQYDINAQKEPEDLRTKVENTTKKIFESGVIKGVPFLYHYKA

[2] = biological target: T2, Hp0231 (Helicobacter pylori, UniProt O25017); assay: Peptide inhibitory activity assay (time-resolved Eu3+ fluorescence peptide oxidation assay); type: biochemical; conditions: 160 nM Hp0231, […] GSSG, 8 µM substrate S1 or S2, pH 5.5
T2 sequence (O25017 entry or part of it): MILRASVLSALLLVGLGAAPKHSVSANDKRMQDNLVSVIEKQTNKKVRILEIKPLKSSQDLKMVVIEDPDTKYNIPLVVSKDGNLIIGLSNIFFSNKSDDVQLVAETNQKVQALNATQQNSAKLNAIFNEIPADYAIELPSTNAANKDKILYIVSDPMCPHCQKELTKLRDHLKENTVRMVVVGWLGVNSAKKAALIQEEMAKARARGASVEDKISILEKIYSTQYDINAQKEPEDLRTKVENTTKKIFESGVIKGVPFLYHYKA
Protocol: The peptide oxidation assay was performed as described previously ([Vivian et al., 2009]; [Kurth et al., 2014]) with slight modification. Briefly, peptide substrates (S1—[…]; S2—[…]) with DOTA (1,4,7,10-tetraazacycclododecane-1,4,7,10-tetraacetic acid) coupled at the N-terminus, and a methylcoumarin amide coupled to the Ɛ-amino group of the C-terminal lysine, were custom synthesized by Eurogentec. The lyophilized peptides were resuspended in 100 mM imidazole (pH 6.0) to a concentration of 2 mM. Freshly prepared 100 mM europium trifluoromethanesulfonate (Eu^3+) solution was added to each peptide at a final concentration of 4 mM and the mixtures incubated for 5 min at room temperature to permit Eu^3+ chelation. Eu^3+ was complexed with DOTA in order to facilitate observation of the oxidation rate of cysteine residues in the substrate peptide, leading to the formation of a disulfide bond. This process brings the methylcoumarin antenna into close contact with the DOTA-Eu^3+ fluorophore, resulting in an increase in Eu^3+ fluorescence. Thus, fluorescence could be used to monitor the capacity of Hp0231 or Hp0231APHA to catalyze disulfide bond formation.
Assays were conducted using an Infinite® M Nano + plate reader (Tecan) with an excitation wavelength of 340 nm and emission wavelength 615 nm. There was a 150 µs delay before reading and time-resolved fluorescence was measured over a period of 100 µs. The assay was performed in white 384-well plates (Perkin Elmer, OptiPlate-384). Each well contained 50 μL, which included the reaction buffer consisting of 50 mM MES, 50 mM NaCl, 2 mM EDTA (pH 5.5), 160 nM protein (either Hp0231 or Hp0231APHA), 1.6 mM GSSG (oxidized glutathione) and 8 µM substrate peptide which was added last to initiate the reaction. Three control reactions were included in each experiment: 1) reaction buffer, GSSG and a protein; 2) reaction buffer and substrate peptide; 3) reaction buffer, substrate peptide and GSSG. Measurements were made for three replicate samples and mean values are presented, with the standard error of the mean indicated by error bars. […]

[3] = biological target: T2, Hp0231; assay: biochemical
Protocol: 2.3.7 Assessment of interactions between inhibitory peptides and Hp0231 or Hp0231APHA using microscale thermophoresis
The purified Hp0231 and Hp0231APHA proteins were suspended in HEPES buffer (20 mM HEPES, 150 mM NaCl, 0.05% (v/v) TWEEN 20, pH 7.4). Protein concentrations were determined by absorption measurements at 280 nm, using the extinction coefficients ε280 = 16,055 M^−1 × cm^−1 for Hp0231 and ε280 = 15,930 M^−1 × cm^−1 for Hp0231APHA, calculated using Quest Calculate™ Protein Concentration Calculator (AAT BioQuest, https://www.aatbio.com/tools/calculate-protein-concentration). After adjusting their concentrations to 200 nM, Hp0231 and Hp0231APHA were labeled using a Monolith His-Tag Labeling Kit RED-tris-NTA (NanoTemper Technologies) according to the manufacturer’s instructions. […] To assess binding interactions between the Hp0231/Hp0231APHA proteins and the inhibitory peptides, MST measurements were performed using a NanoTemper ® Monolith NT.115 instrument (NanoTemper Technologies). Samples were prepared according to the manufacturer’s instructions and loaded in Premium coated capillaries (NanoTemper Technologies). Measurements were performed using MO.Control v1.6.1 (NanoTemper Technologies) software. Medium and high MST power were applied at 25°C. The results were analyzed using MO.Affinity Analysis v2.3 (NanoTemper Technologies) and Origin 2019 (OriginLab Corporation). At least three independent measurements were performed for each sample.

[4] = test system: E. coli DsbA; set-up: method as in Duprez et al. (2015); conditions: ref Duprez et al. (2015); cited from earlier work
[5] = MST, pseudo-titration mode, 25°C, Hp0231APHA (CPHC to APHA, inactive), NB = not binding
[6] = MST, pseudo-titration mode, 25°C, Hp0231APHA (CPHC to APHA, inactive), NB = not binding, read-out: K D
[7] = MST, pseudo-titration mode, 25°C, Hp0231, mean of three experiments ± S.D., NB = not binding

Row | Compound | K D [1, 5] | Kd [1, 6] [µM] | Inhibition of Hp0231-catalyzed oxidation of substrate peptides (Eu3+ fluorescence increase) ([2]; inhibitory peptide 1 mM) | Kd [3] [µM] | K D [3, 7] | Kd [1] [µM] | Inhibition of Hp0231-catalyzed oxidation of substrate peptides (Eu3+ fluorescence increase) ([2]; inhibitory peptide 0.75 mM) | Kd [4] [µM] | Kd [3, 7] [µM]
1 | Ac-HQSCAYEL-NH2 [WAW7] | no interaction | > 1000 | inhibition of the fluorescence intensity increase | 112 ± 21 | low affinity |  |  |  | 
2 | CC(=O)N[C@@H](Cc1c[nH]cn1)C(=O)N[C@@H](CCC(N)=O)C(=O)N[C@@H](CO)C(=O)N[C@@H](CS)C(=O)N[C@@H](C)C(=O)N[C@@H](CS)C(=O)N[C@@H](CCC(=O)O)C(=O)N[C@@H](CC(C)C)C(N)=O [WAW8] (Ac-HQSCACEL-NH2) |  |  |  |  | two binding affinities (low and high) | 1.3 ± 0.2 | the reaction rate was significantly reduced |  | 
3 | PSPFATCDF |  |  |  |  |  |  |  | 4 | 
4 | Ac-HQSALYEL-NH2 [WAW6] | did not bind; also recorded: no binding | > 1000 | did not yield a significant alteration in the fluorescence intensity |  |  |  |  |  | > 1000
